Tests used:
[1] = molecular target: T1, AT1R and CXCR2 (Homo sapiens, UniProt P25025+P30556); test: IP1 accumulation, HEK293 cells stably-expressing CXCR2 and transiently-transfected with AT1R; type: cell-based
T1 sequence (P30556 1-359): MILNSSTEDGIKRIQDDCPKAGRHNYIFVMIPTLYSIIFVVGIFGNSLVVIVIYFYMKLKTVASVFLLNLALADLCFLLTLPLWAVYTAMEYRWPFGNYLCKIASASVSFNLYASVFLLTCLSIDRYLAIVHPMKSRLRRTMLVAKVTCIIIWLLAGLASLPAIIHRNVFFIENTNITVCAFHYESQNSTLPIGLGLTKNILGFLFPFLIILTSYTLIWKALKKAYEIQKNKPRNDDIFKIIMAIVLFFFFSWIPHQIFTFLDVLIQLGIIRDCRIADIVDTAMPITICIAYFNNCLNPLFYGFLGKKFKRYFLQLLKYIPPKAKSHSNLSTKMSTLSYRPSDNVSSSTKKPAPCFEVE
T1 sequence (P25025 1-360): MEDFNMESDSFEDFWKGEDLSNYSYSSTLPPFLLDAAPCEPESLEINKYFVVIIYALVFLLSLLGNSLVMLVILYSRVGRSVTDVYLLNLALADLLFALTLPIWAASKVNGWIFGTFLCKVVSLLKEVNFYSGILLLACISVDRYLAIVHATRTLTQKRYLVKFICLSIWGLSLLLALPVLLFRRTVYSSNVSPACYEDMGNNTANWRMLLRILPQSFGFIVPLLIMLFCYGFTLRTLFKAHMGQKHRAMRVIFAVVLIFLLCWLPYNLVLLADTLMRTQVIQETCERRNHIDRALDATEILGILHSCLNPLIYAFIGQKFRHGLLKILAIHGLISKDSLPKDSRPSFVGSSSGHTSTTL

[2] = molecular target: T2, CXCR2 (Homo sapiens, UniProt P25025); test: BRET trafficking of CXCR2/Rluc8 to Venus/Kras or Venus/Rab markers, absence of AT1R; type: cell-based; conditions: 100 nM CXCL8, 1 μM AngII
T2 sequence (P25025 1-360): T1 sequence (P25025 1-360)
Method: HEK293FT cells were seeded in 6-well plates at a density of approximately 700,000 cells/well and maintained at 37° C., 5% CO2 in Complete Media (DMEM containing 0.3 mg/ml glutamine, 100 IU/ml penicillin and 100 μg/ml streptomycin (Gibco/Thermo Fisher)) supplemented with 10% fetal calf serum (FCS; Bovogen). Transient transfections were carried out 24 h after seeding using FuGene6™ (Promega) according to manufacturer instructions. 24 h post-transfection, cells were washed with PBS, detached using 0.05% trypsin/0.53 mM EDTA, resuspended in HEPES-buffered phenol red free Complete Media containing 5% FCS and added to a poly-L-lysine-coated white 96-well microplate (Greiner Bio-One). 48 h post-transfection, bioluminescence resonance energy transfer (BRET) assays were carried out following pre-incubation of cells with EnduRen™ (Promega) at a final concentration of 30 μM, at 37° C., 5% CO2 for 2 h. BRET measurements were taken at 37° C. using the LUMlstar™ or CLARIOstar™ (BMG Labtech). Filtered light emissions were measured for 1 s in each of the ‘donor wavelength window’ (460-490 nm for LUMlstar™ or 410-490 nm for CLARIOstar™) and ‘acceptor wavelength window’ (520-550 nm for LUMlstar™ or 520-620 nm for CLARIOstar™).
The BRET signal observed between interacting proteins is normalized by subtracting the background BRET ratio. This can be done in one of two ways (see Pfleger et al. (2006) Cell Signal 18:1664-1670; Pfleger et al. (2006) Nat Protoc 1:336-344): 1) the ratio of the 520-550 nm or 520-620 nm emission over the 460-490 nm or 410-490 nm emission for a cell sample containing only the donor construct is subtracted from the same ratio for a sample containing the interacting acceptor and donor fusion proteins; 2) the ratio of the 520-550 nm or 520-620 nm emission over the 460-490 nm or 410-490 nm emission for a cell sample treated with vehicle is subtracted from the same ratio for a second aliquot of the same cell sample treated with ligand. In the following examples, the second calculation will be used and the signal is described as ligand-induced BRET′. Furthermore, for data shown in FIGS. 4 to 20, all data points in a given set are corrected relative to the final data point prior to agonist treatment, which is fixed to zero. In keys on FIGS. 7 to 20, “>” means “followed by after 50 minutes”, with agonists added at time zero on the x-axes.
Referring now to FIG. 3 (published in Tiulpakov et al (2016) Mol. Endocrinol. 30, 889-904), the proximity of Rluc8-tagged receptors to Venus-tagged Kras plasma membrane marker, or Venus-tagged Rabs specific for distinct subcellular locations, is monitored in live cells and in real-time using BRET. The Rab markers are: Venus/Rab5 (5) for early endosomes; Venus/Rab4 (4) for early endosome recycling; Venus/Rab11a (11) for recycling endosomes; Venus/Rab7 (7) for late endosomes/lysosomes; Venus/Rab9 (9) for late endosome trafficking to the trans-Golgi network; Venus/Rab1 (1) for endoplasmic reticulum trafficking to the cis-Golgi; Venus/Rab6 (6) for Golgi apparatus and trans-Golgi network; or Venus/Rab8 (8) for trans-Golgi network to plasma membrane.

Angiotensin II [AngII]
no effect: proximity of CXCR2/Rluc8 to Venus/Rab6 (BRET) ([2]; Golgi apparatus to trans-Golgi network, FIG. 4I) | proximity of CXCR2/Rluc8 to Venus/Rab4 (BRET) ([2]; early endosome recycling, FIG. 4E) | proximity of CXCR2/Rluc8 to Venus/Rab5 (BRET) ([2]; early endosomes, FIG. 4G) | proximity of CXCR2/Rluc8 to Venus/Rab1 (BRET) ([2]; endoplasmic reticulum to cis-Golgi, FIG. 4C) | proximity of CXCR2/Rluc8 to Venus/Rab9 (BRET) ([2]; late endosome to trans-Golgi network, FIG. 4O) | proximity of CXCR2/Rluc8 to Venus/Rab7 (BRET) ([2]; late endosomes/lysosomes, FIG. 4K) | proximity of CXCR2/Rluc8 to Venus/Kras (BRET) ([2]; plasma membrane marker, FIG. 4A) | proximity of CXCR2/Rluc8 to Venus/Rab11a (BRET) ([2]; recycling endosomes, FIG. 4Q) | proximity of CXCR2/Rluc8 to Venus/Rab8 (BRET) ([2]; trans-Golgi network to plasma membrane, FIG. 4M)
209 nM: Rmax, IP1 accumulation [1]

Source: US20240009191A1, “METHOD AND COMPOSITION FOR THE TREATMENT OF DISEASE” (DIMERIX BIOSCIENCE PTY LTD, priority 2019, published 2024)
